From patent publication US9828350B2, “5,6-dihydro-2H-[1,4]oxazin-3-yl-amine derivatives useful as inhibitors of beta-secretase (BACE)” (Janssen Pharmaceutica NV, priority 2010, dated 2017) come the findings set out here.

Usually melting point stands for the temperature of the solid-liquid transition.

The target of data set [1] is recombinant BACE1 protein (Homo sapiens, UniProt P56817). The data set can be described thus: Biochemical FRET based assay. As to conditions: recombinant BACE1 1 μg/ml, 120 minutes at room temperature, pH 5.0; for IC50: read-out: Biochemical FRET based assay pIC50 (converted). The method in brief: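 Recombinant BACE1 (1 μg/ml final) was incubated 120 minutes at room temperature with […] Mca/Dnp-labelled 13-mer APP Swedish-mutant peptide in 40 mM citrate pH 5.0, 0.04% PEG, 4% DMSO, with or without compound. Cleavage was measured as fluorescence (ex 320/em 405 nm), given as RFU difference between T120 and T0.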
Sequence of recombinant BACE1 protein (P56817 46-501): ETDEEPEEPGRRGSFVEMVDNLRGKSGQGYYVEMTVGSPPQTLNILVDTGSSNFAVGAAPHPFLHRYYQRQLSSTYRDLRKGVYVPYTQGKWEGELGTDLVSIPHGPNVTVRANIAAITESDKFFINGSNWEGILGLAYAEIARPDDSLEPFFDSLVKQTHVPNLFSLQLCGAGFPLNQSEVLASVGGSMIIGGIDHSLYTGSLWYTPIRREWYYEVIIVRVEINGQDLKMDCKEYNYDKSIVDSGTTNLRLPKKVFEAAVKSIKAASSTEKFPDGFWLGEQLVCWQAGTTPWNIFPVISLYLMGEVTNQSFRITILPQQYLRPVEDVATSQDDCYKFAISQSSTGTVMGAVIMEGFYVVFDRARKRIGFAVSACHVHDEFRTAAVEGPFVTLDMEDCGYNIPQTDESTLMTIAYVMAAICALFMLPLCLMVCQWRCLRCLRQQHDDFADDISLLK

For data set [2], the system named is Abeta total. The experiment in a line: Cellular αLisa assay in SKNBE2 cells, Abeta total. Format: cell-based, human. The following applies: incubated for 18 hours; for IC50: Homo sapiens, SKNBE2, 18 h, read-out: Cellular αLisa assay in SKNBE2 cells Abetatotal pIC50 (converted). The method in brief:
(§1)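 Human neuroblastoma SKNBE2 cells expressing wild-type hAPP695 were incubated with compound for 18 hours. Secreted Abeta total and Abeta 1-42 in medium were quantified by sandwich αLisa: biotinylated AbN/25 on streptavidin donor beads with Ab4G8 (total) or cAb42/26 (1-42) acceptor beads. Light emission read after 1 hour (ex 650 nm, em 615 nm).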

Data set [3] has as its system Abeta 1-42. The data set can be described thus: Cellular αLisa assay in SKNBE2 cells, Abeta 1-42. Format: cell-based, human. As to conditions: incubated for 18 hours; for IC50: Homo sapiens, SKNBE2, 18 h, read-out: Cellular αLisa assay in SKNBE2 cells Abeta 42 pIC50 (converted). The method in brief:
as §1

Turning to `C[C@]1(c2cc(NC(=O)c3ccc(C#N)cn3)ccc2F)N=C(N)CO[C@@]1(F)C(F)(F)F` [Compound 183], the melting point came out at 196.01 °C. The IC50 in data set [1] was 40.7 nM. Further, in data set [2], the IC50 was 13.8 nM. In addition, in data set [3], the IC50 is 14.5 nM.

As to `C[C@]1(c2cc(-c3cncnc3)c(F)cc2F)N=C(N)CO[C@@]1(F)C(F)(F)F` [Compound 211], the melting point was 62 °C. Besides, in data set [1], the IC50 was 1410 nM. Besides, the IC50 in data set [2] was 1740 nM. Also, the IC50 in data set [3] was 2190 nM.

`CC1(c2cccc(NC(=O)c3ccc(Cl)cn3)c2)N=C(N)COC1(F)C(F)(F)F` (single isomer, unassigned) [Compound 112] gave a melting point of 207.3 °C. The “Cellular αLisa assay in SKNBE2 cells Abetatotal pIC50” value in data set [2] is 5.71. The “Cellular αLisa assay in SKNBE2 cells Abeta 42 pIC50” value in data set [3] was 5.68.

`N#Cc1ccc(C(=O)Nc2ccc(F)c([C@@]3(C4CC4)N=C(N)CO[C@H]3C(F)(F)F)c2)nc1` [Compound 229, (2R,3R)—N-{3-[5-amino-3-cyclopropyl-2-(trifluoromethyl)-3,6-dihydro-2H-1,4-oxazin-3-yl]-4-fluorophenyl}-5-cyanopyridine-2-carboxamide] showed a melting point of 181.79 °C. Besides, the IC50 in data set [1] was 44.7 nM. For the same compound, in data set [2], the IC50 is 14.5 nM. Moreover, the IC50 in data set [3] is 14.1 nM.

In the case of `CC1(c2cccc(NC(=O)c3ncc(Cl)cc3F)c2)N=C(N)COC1(F)C(F)(F)F` (single isomer, unassigned) [Compound 174], the melting point is 179.18 °C. Besides, the IC50 in data set [1] was greater than 30200 nM. Also, in data set [2], the “Cellular αLisa assay in SKNBE2 cells Abetatotal pIC50” value was less than 5. Besides, in data set [3], the “Cellular αLisa assay in SKNBE2 cells Abeta 42 pIC50” value is on record as less than 5.

Take `CCC1(c2cc(-c3cncnc3)ccc2F)N=C(N)COC1(F)C(F)(F)F` (stereo not shown) [Compound 303]: the melting point was 204.89 °C. For the same compound, in data set [1], the IC50 was 1820 nM. Further, the “Cellular αLisa assay in SKNBE2 cells Abetatotal pIC50” value in data set [2] turned out to be 5.76. Moreover, the “Cellular αLisa assay in SKNBE2 cells Abeta 42 pIC50” value in data set [3] is 5.73.

Turning to `CC1(c2cccc(-c3cncnc3)c2)N=C(N)COC1F` (stereo not shown) [Compound 99], the melting point stood at 204.3 °C. In addition, in data set [1], the IC50 is 20900 nM. For the same compound, the “Cellular αLisa assay in SKNBE2 cells Abetatotal pIC50” value in data set [2] worked out at 5.73. In data set [3], the “Cellular αLisa assay in SKNBE2 cells Abeta 42 pIC50” value was determined as 5.87.

Consider `COc1ccc(C(=O)Nc2ccc(F)c([C@@]3(C)N=C(N)CO[C@@H]3F)c2)nc1` [Compound 208], for which the melting point is 185.6 °C. Further, the IC50 in data set [1] was 26.9 nM. Further, the IC50 in data set [2] is 10 nM. In addition, the IC50 in data set [3] was 11 nM.

Compound `CC1(c2cccc(-c3cncnc3)c2)N=C(N)COC1F` (stereo not shown) [Compound 98] gave a melting point of 189.3 °C. In addition, in data set [1], the IC50 was 2820 nM. Besides, the “Cellular αLisa assay in SKNBE2 cells Abetatotal pIC50” value in data set [2] is on record as 6.14. Moreover, in data set [3], the “Cellular αLisa assay in SKNBE2 cells Abeta 42 pIC50” value came out at 6.19.

Compound `Cc1cc(Br)cnc1C(=O)Nc1ccc(F)c([C@@]2(C3CC3)N=C(N)CO[C@@H]2F)c1` [Compound 314] registered a melting point of 132.03 °C. Further, in data set [1], the IC50 is 55 nM. The IC50 in data set [2] was 57.5 nM. Also, the IC50 in data set [3] is 83.2 nM.

For `CC1(c2cc(NC(=O)c3ccc(Cl)cn3)cc(C(F)(F)F)c2)COCC(N)=N1` (stereo not shown) [Compound 197], the melting point was 175.32 °C. Also, the IC50 in data set [1] is 1000 nM. Besides, in data set [2], the IC50 is 166 nM. In addition, in data set [3], the IC50 is 170 nM.

Regarding `NC1=NC(c2cccc(NC(=O)c3ccc(Cl)cn3)c2)(C2CC2)COC1` (racemic) [Compound 153, rac-N-[3-(5-Amino-3-cyclopropyl-3,6-dihydro-2H-1,4-oxazin-3-yl)phenyl]-5-chloropyridine-2-carboxamide], the melting point is 161.5 °C. The IC50 in data set [1] is 89.1 nM. Also, in data set [2], the IC50 was 13.2 nM. The IC50 in data set [3] was 11.5 nM.

Compound `CC1(c2cc(-c3cncnc3)c(F)cc2F)COC2(CC2)C(N)=N1` (stereo not shown) [Compound 72] registered a melting point of 213.1 °C. The IC50 in data set [1] was 2630 nM. Further, in data set [2], the IC50 was 646 nM. The IC50 in data set [3] is 631 nM.

`CC1(c2cccc(NC(=O)c3ncc(Cl)cc3F)c2)N=C(N)COC1(F)C(F)(F)F` (single isomer, unassigned) [Compound 172] registered a melting point of 180.17 °C. The IC50 in data set [1] was 513 nM. Also, the “Cellular αLisa assay in SKNBE2 cells Abetatotal pIC50” value in data set [2] was found to be 6.81. Besides, in data set [3], the “Cellular αLisa assay in SKNBE2 cells Abeta 42 pIC50” value worked out at 6.74.

Compound `CC1(c2cccc(-c3cncnc3)c2)N=C(N)COC1F` (single isomer, unassigned) [Compound 94] returned a melting point of 115.4 °C. Moreover, the IC50 in data set [1] was greater than 30200 nM. Besides, the “Cellular αLisa assay in SKNBE2 cells Abetatotal pIC50” value in data set [2] was determined as 5.34. In addition, in data set [3], the “Cellular αLisa assay in SKNBE2 cells Abeta 42 pIC50” value stood at 5.43.

As for `COc1ccc(C(=O)Nc2ccc(F)c([C@@]3(C)N=C(N)CO[C@@]3(F)C(F)(F)F)c2)nc1` [Compound 305], the melting point came out at 123.8 °C. Besides, the IC50 in data set [1] is 41.7 nM. Also, in data set [2], the IC50 is 25.1 nM. Besides, the IC50 in data set [3] was 25.1 nM.

Compound `C[C@]1(c2cc(-c3cncc(Cl)c3)c(F)cc2F)N=C(N)CO[C@]1(F)C(F)(F)F` [Compound 212] showed a melting point of 145.3 °C. In data set [1], the IC50 is 6460 nM. Besides, in data set [2], the IC50 is greater than 10000 nM. Besides, in data set [3], the IC50 was greater than 10000 nM.

Regarding `COc1cncc(-c2cccc(C3(C)N=C(N)COC3F)c2)c1` (stereo not shown) [Compound 87], the melting point amounted to 139.23 °C. Further, the “Biochemical FRET based assay pIC50” value in data set [1] came to 5.81. Moreover, the “Cellular αLisa assay in SKNBE2 cells Abetatotal pIC50” value in data set [2] is 6.47. Moreover, the “Cellular αLisa assay in SKNBE2 cells Abeta 42 pIC50” value in data set [3] was 6.46.

The compound `C[C@@]1(c2cccc(NC(=O)c3ccc(Cl)cn3)c2)N=C(N)CO[C@H]1F` (single isomer, unassigned) [Compound 85, (S*,S*)—N-[3-(5-amino-2-fluoro-3-methyl-3,6-dihydro-2H-1,4-oxazin-3-yl)phenyl]-5-chloropyridine-2-carboxamide] registered a melting point of 160.8 °C. Further, in data set [1], the IC50 was 6460 nM. Further, in data set [2], the IC50 was 851 nM. Also, in data set [3], the IC50 is 871 nM.

On to `C[C@]1(c2cc(-c3cncc(Cl)c3)c(F)cc2F)N=C(N)CO[C@@]1(F)C(F)(F)F` [Compound 213], for which the melting point is 70.1 °C. Also, the IC50 in data set [1] is 437 nM. The IC50 in data set [2] is 3720 nM. The IC50 in data set [3] is 4070 nM.

`CC1(c2cccc(NC(=O)c3ccncn3)c2)N=C(N)COC1(F)C(F)(F)F` (single isomer, unassigned) [Compound 187] came in with a melting point of 189.64 °C. The IC50 in data set [1] was 10200 nM. Further, the “Cellular αLisa assay in SKNBE2 cells Abetatotal pIC50” value in data set [2] was determined as 5.95. Moreover, in data set [3], the “Cellular αLisa assay in SKNBE2 cells Abeta 42 pIC50” value amounted to 5.92.

As for `COc1cnc(C(=O)Nc2ccc(F)c([C@@]3(C)N=C(N)CO[C@]3(F)C(F)(F)F)c2)cn1` [Compound 184], the melting point came out at 198.43 °C. Moreover, in data set [1], the IC50 is 407 nM. Besides, the IC50 in data set [2] was 363 nM. Moreover, the IC50 in data set [3] is 363 nM.

`C[C@]1(c2cc(-c3cncc(Cl)c3)c(F)cc2F)N=C(N)CO[C@H]1C(F)(F)F` [Compound 255] yielded a melting point of 141.4 °C. The IC50 in data set [1] was 447 nM. The IC50 in data set [2] was 347 nM. The IC50 in data set [3] was 398 nM.
